Data published in US20230104936A1, “TRPML MODULATORS” (Casma Therapeutics, Inc., priority 2019, published 2023).

Tested on: TFEB
Experiment: TFEB nuclear translocation assay, HeLa wt cells
Assay type: cell-based
Conditions: 2 hrs compound treatment, Table 1 does not say HeLa wt or TRPML1 KO
Outline: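 HeLa wt cells were treated with compound for 2 hrs at 37° C, then fixed in 4% PFA and immunostained for TFEB with an Alexa 488 secondary and Hoechst nuclear counterstain. Automated epifluorescence imaging at ×20 gave the ratio of nuclear TFEB intensity to a perinuclear ring region, from which AC50 was derived.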

Structure (SMILES)	AC50 (Homo sapiens, HeLa, 2 h) [µM]	AC50 [µM]
O=S(=O)(Nc1ccccc1N1CCC(c2ccc(Cl)cc2F)CC1)c1cccc(Cl)c1 [Compound A-77, 3-chloro-N-{2-[4-(4-chloro-2-fluorophenyl)piperidin-1-yl]phenyl}benzene-1-sulfonamide]	≤ 2	–
C[C@H](c1cccc(F)c1N1CCCCC1)S(=O)(=O)c1ccc(S(=N)(=O)N(C)C)cc1 (single isomer, unassigned) [Compound A-894]	–	2.01 to 8
CN1CCN(S(=O)(=O)c2ccc(S(=O)(=O)Nc3ccccc3N3CCC(c4c(F)cccc4F)CC3)cc2)CC1 [Compound A-220, N-{2-[4-(2,6-difluorophenyl)piperidin-1-yl]phenyl}-4-[(4-methylpiperazin-1-yl)sulfonyl]benzene-1-sulfonamide]	≥ 10	–
Cc1nc(C)c(S(=O)(=O)Nc2ccccc2N2CCC(CN3C[C@@H](C)O[C@@H](C)C3)CC2)s1 [Compound A-756, N-[2-(4-{[(2R,6S)-2,6-dimethylmorpholin-4-yl]methyl}piperidin-1-yl)phenyl]-2,4-dimethyl-1,3-thiazole-5-sulfonamide]	2.01 to 8	–
CN(C)S(=O)(=O)c1ccc(S(=O)(=O)Nc2ccccc2N2CCC(F)(CCO)CC2)cc1 [Compound A-722, N4-{2-[4-fluoro-4-(2-hydroxyethyl)piperidin-1-yl]phenyl}-N1,N1-dimethylbenzene-1,4-disulfonamide]	≥ 10	–
O=C1COCCN1c1c(Cl)cccc1NS(=O)(=O)c1ccc2c(c1)CCC2 [Compound A-297, N-[3-chloro-2-(3-oxomorpholin-4-yl)phenyl]-2,3-dihydro-1H-indene-5-sulfonamide]	≥ 10	–
CP(C)(=O)c1ccc(S(=O)(=O)Nc2cccc(Cl)c2N2CCOCC2)cc1 [Compound A-287, N-[3-chloro-2-(morpholin-4-yl)phenyl]-4-(dimethylphosphoryl)benzene-1-sulfonamide]	≥ 10	–
CN1C(=O)c2cc(F)ccc2C12CCN(c1ccccc1NS(=O)(=O)c1ccc(S(=O)(=O)N(C)C)cc1)CC2 [Compound A-301, N4-(2-{5-fluoro-2-methyl-3-oxo-2,3-dihydrospiro[isoindole-1,4′-piperidin]-1′-yl}phenyl)-N1,N1-dimethylbenzene-1,4-disulfonamide]	≤ 2	–
O=S(=O)(Nc1ccccc1N1CCN(c2ccc(Cl)cc2F)CC1)N1CCOCC1 [Compound A-43, N-{2-[4-(4-chloro-2-fluorophenyl)piperazin-1-yl]phenyl}morpholine-4-sulfonamide]	≤ 2	–
COCC1(C)CCN(c2ccccc2NS(=O)(=O)c2ccc(S(C)(=O)=O)c(F)c2)CC1 [Compound A-731, 3-fluoro-4-methanesulfonyl-N-{2-[4-(methoxymethyl)-4-methylpiperidin-1-yl]phenyl}benzene-1-sulfonamide]	≥ 10	–
O=S(=O)(Nc1ccccc1N1CCC(c2ccc(Cl)cc2F)CC1)c1cc(F)cc(F)c1 [Compound A-91, N-{2-[4-(4-chloro-2-fluorophenyl)piperidin-1-yl]phenyl}-3,5-difluorobenzene-1-sulfonamide]	≥ 10	–
O=S(=O)(Nc1cccc(Cl)c1N1CCCCC1)c1ccc(C2(C(F)(F)F)N=N2)cc1 [Compound A-749, N-[3-chloro-2-(piperidin-1-yl)phenyl]-4-[3-(trifluoromethyl)-3H-diazirin-3-yl]benzene-1-sulfonamide]	2.01 to 8	–
CN(C)S(=O)(=O)c1ccc(S(=O)(=O)Nc2ccccc2N2CCC(c3ccc(Cl)cc3F)CC2)cc1 [Compound A-23, N4-{2-[4-(4-chloro-2-fluorophenyl)piperidin-1-yl]phenyl}-N1,N1-dimethylbenzene-1,4-disulfonamide]	≤ 2	–
CN(C)CC1(c2ccc(F)cc2)CCN(c2ccccc2NS(=O)(=O)c2ccc(S(=O)(=O)N(C)C)cc2)CC1 [Compound A-231, N4-(2-{4-[(dimethylamino)methyl]-4-(4-fluorophenyl)piperidin-1-yl}phenyl)-N1,N1-dimethylbenzene-1,4-disulfonamide]	≤ 2	–
CC(c1cccc(F)c1N1CCC(CN2CCC(F)(F)CC2)CC1)S(=O)(=O)c1ccc(C(F)F)cc1 (single isomer, unassigned) [Compound A-998, 1-((1-(2-(1-((4-(difluoromethyl)phenyl)sulfonyl)ethyl)-6-fluorophenyl)piperidin-4-yl)methyl)-4,4-difluoropiperidine]	–	2.01 to 8
CC(C)CN1CCN(c2ccccc2NS(=O)(=O)c2ccc(S(=O)(=O)N(C)C)cc2)CCC1=O [Compound A-526, N1,N1-dimethyl-N4-{2-[4-(2-methylpropyl)-5-oxo-1,4-diazepan-1-yl]phenyl}benzene-1,4-disulfonamide]	2.01 to 8	–
CN(C)S(=O)(=O)c1ccc(S(=O)(=O)Nc2cc(Cl)ccc2N2CCN(C(=O)C(C)(C)C)CC2)cc1 [Compound A-400, N4-{5-chloro-2-[4-(2,2-dimethylpropanoyl)piperazin-1-yl]phenyl}-N1,N1-dimethylbenzene-1,4-disulfonamide]	2.01 to 8	–

Structure (SMILES)	AC50 (Homo sapiens, HeLa, 2 h) [µM]	AC50 [µM]
COc1ccc(S(=O)(=O)Nc2ccccc2Oc2ccc(F)cc2F)cc1 [Compound A-186, N-(2-(2,4-difluorophenoxy)phenyl)-4-methoxybenzenesulfonamide]	≥ 10	–
CN(C)S(=N)(=O)c1ccc(S(=O)(=O)Nc2cccc(F)c2N2CCC(CN3CC4CCC(C3)O4)CC2)cc1 (stereo not shown) [Compound A-844, 4-({3-fluoro-2-[4-({8-oxa-3-azabicyclo[3.2.1]octan-3-yl}methyl)piperidin-1-yl]phenyl}sulfamoyl)-N,N-dimethylbenzene-1-sulfonoimidamide]	≤ 2	–
CN1CCC2(CCN(c3ccccc3NS(=O)(=O)c3ccc(S(=O)(=O)N(C)C)cc3)CC2)C1=O [Compound A-244, N1,N1-dimethyl-N4-(2-{2-methyl-1-oxo-2,8-diazaspiro[4.5]decan-8-yl}phenyl)benzene-1,4-disulfonamide]	≥ 10	–
CN(C)S(=O)(=O)c1ccc(S(=O)(=O)Nc2cccc(F)c2N2CCC(CN3C[C@@H]4C[C@H]3CO4)CC2)cc1 [Compound A-785, N4-[3-fluoro-2-(4-{[(1S,4S)-2-oxa-5-azabicyclo[2.2.1]heptan-5-yl]methyl}piperidin-1-yl)phenyl]-N1,N1-dimethylbenzene-1,4-disulfonamide]	≤ 2	–
CN(C)S(=O)(=O)c1ccc(S(=O)(=O)N(C)c2cccc(Cl)c2N2CCOCC2)cc1 [Compound A-286, N1-[3-chloro-2-(morpholin-4-yl)phenyl]-N1,N4,N4-trimethylbenzene-1,4-disulfonamide]	≥ 10	–
CN(C)S(=O)(=O)c1ccc(S(=O)(=O)Nc2cccc(F)c2N2CCC3(CCN3)CC2)cc1 [Compound A-816, N4-(2-{1,7-diazaspiro[3.5]nonan-7-yl}-3-fluorophenyl)-N1,N1-dimethylbenzene-1,4-disulfonamide]	≥ 10	–
CC(c1cccc(F)c1N1CCCCC1)S(=O)(=O)c1ccc(S(=O)(=O)N(C)C)cc1 (single isomer, unassigned) [Compound A-911, 4-((1-(3-fluoro-2-(piperidin-1-yl)phenyl)ethyl)sulfonyl)-N,N-dimethylbenzenesulfonamide]	≤ 2	–
CN(C)S(=O)(=O)c1ccc(S(=O)(=O)Nc2ccccc2N2CCN(CCF)CC2)cc1 [Compound A-559, N4-{2-[4-(2-fluoroethyl)piperazin-1-yl]phenyl}-N1,N1-dimethylbenzene-1,4-disulfonamide]	2.01 to 8	–
CC(c1cccc(F)c1N1CCCCC1)S(=O)(=O)c1ccc(S2(=O)=NCCC2)cc1 (single isomer, unassigned) [Compound A-981, 1-(4-((1-(3-fluoro-2-(piperidin-1-yl)phenyl)ethyl)sulfonyl)phenyl)-4,5-dihydro-3H-isothiazole 1-oxide]	–	≥ 10
COC1(C(=O)N2CCN(c3ccccc3NS(=O)(=O)c3ccc(S(=O)(=O)N(C)C)cc3)CC2)CCCCC1 [Compound A-445, N4-{2-[4-(1-methoxycyclohexanecarbonyl)piperazin-1-yl]phenyl}-N1,N1-dimethylbenzene-1,4-disulfonamide]	≤ 2	–
CN(C)S(=O)(=O)c1ccc(S(=O)(=O)Nc2ccccc2N2CCN(C(=O)C3CC(F)(F)C3)CC2)cc1 [Compound A-429, N4-{2-[4-(3,3-difluorocyclobutanecarbonyl)piperazin-1-yl]phenyl}-N1,N1-dimethylbenzene-1,4-disulfonamide]	2.01 to 8	–
CN(C)S(=O)(=O)c1ccc(S(=O)(=O)Nc2ccccc2N2CCC(C(N)=O)(c3ccc(F)cc3F)CC2)cc1 [Compound A-163, 4-(2,4-difluorophenyl)-1-{2-[4-(dimethylsulfamoyl)benzenesulfonamido]phenyl}piperidine-4-carboxamide]	≥ 10	–
CN(C)S(=O)(=O)c1ccc(S(=O)(=O)Nc2ccccc2N2CCN(C3CCCCC3(F)F)CC2)cc1 (stereo not shown) [Compound A-626, N4-{2-[4-(2,2-difluorocyclohexyl)piperazin-1-yl]phenyl}-N1,N1-dimethylbenzene-1,4-disulfonamide]	≤ 2	–
O=S(=O)(Nc1cccc(Cl)c1N1CCOCC1)c1ccccc1C1CC1 [Compound A-392, N-[3-chloro-2-(morpholin-4-yl)phenyl]-2-cyclopropylbenzene-1-sulfonamide]	2.01 to 8	–
O=S(=O)(Nc1cc(Cl)ccc1N1CCC2(CCCO2)CC1)c1ccc2c(c1)CCC2 [Compound A-328, N-(5-chloro-2-{1-oxa-8-azaspiro[4.5]decan-8-yl}phenyl)-2,3-dihydro-1H-indene-5-sulfonamide]	≥ 10	–
CC(c1cccc(F)c1N1CCCCC1)S(=O)(=O)c1ccc(S(=O)(=O)N(C)C)cc1 (single isomer, unassigned) [Compound A-912, 4-((1-(3-fluoro-2-(piperidin-1-yl)phenyl)ethyl)sulfonyl)-N,N-dimethylbenzenesulfonamide]	–	≤ 2
CC1(C)Cc2cc(S(=O)(=O)Nc3ccccc3N3CCCC34CCCOC4)ccc2O1 (stereo not shown) [Compound A-640, 2,2-dimethyl-N-(2-{7-oxa-1-azaspiro[4.5]decan-1-yl}phenyl)-2,3-dihydro-1-benzofuran-5-sulfonamide]	2.01 to 8	–
